From patent US8802597B2, “Herbicidal pyrimidines” (E I du Pont de Nemours and Company, priority 2003, dated 2014)
Where two headings read alike, the source gives them in different places.

What was measured:
Experiment in all cases: Test C pre/postemergence
Format in all cases: in vivo
[1] = test system: johnsongrass (Sorghum halepense); details: Sorghum halepense, read-out: Plant response rating, Johnsongrass; for pest or weed control at 250 g/ha: 250 g ai/ha; for pest or weed control at 500 g/ha: 500 g ai/ha
Outline: (§1)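 Pre: seeds planted, sprayed same day. Post: 1- to 4-leaf plants (2–18 cm). Formulation: non-phytotoxic solvent + surfactant. Greenhouse 12–14 d; visual % control vs untreated, 0–100.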

[2] = test system: kochia (Kochia scoparia); details: Bassia scoparia; for pest or weed control at 62 g/ha: 62 g ai/ha; for pest or weed control at 125 g/ha: 125 g ai/ha; for pest or weed control at 250 g/ha: 250 g ai/ha; for pest or weed control at 500 g/ha: 500 g ai/ha
Outline: as §1

[3] = test system: morningglory (Ipomoea coccinea); details: Ipomoea; for pest or weed control at 62 g/ha: 62 g ai/ha; for pest or weed control at 125 g/ha: 125 g ai/ha; for pest or weed control at 250 g/ha: 250 g ai/ha; for pest or weed control at 500 g/ha: 500 g ai/ha
Outline: as §1

[4] = test system: pigweed (Amaranthus retroflexus); details: Amaranthus retroflexus; for pest or weed control at 62 g/ha: 62 g ai/ha; for pest or weed control at 125 g/ha: 125 g ai/ha; for pest or weed control at 250 g/ha: 250 g ai/ha; for pest or weed control at 500 g/ha: 500 g ai/ha
Outline: as §1

[5] = test system: soybean (Glycine max); details: Glycine max; for plant injury at 62 g/ha: 62 g ai/ha; for plant injury at 125 g/ha: 125 g ai/ha; for plant injury at 250 g/ha: 250 g ai/ha; for plant injury at 500 g/ha: 500 g ai/ha
Outline: as §1

[6] = test system: woolly cupgrass (Eriochloa villosa); details: Eriochloa villosa; for pest or weed control at 62 g/ha: 62 g ai/ha; for pest or weed control at 125 g/ha: 125 g ai/ha; for pest or weed control at 250 g/ha: 250 g ai/ha; for pest or weed control at 500 g/ha: 500 g ai/ha
Outline: as §1

[7] = post-emergence, Postemergence, scale 0 to 100
[8] = pre-emergence, Preemergence, scale 0 to 100
[9] = post-emergence, Postemergence, scale 0 to 100 (0 no effect, 100 complete control), read-out: Kochia plant response rating
[10] = post-emergence, Postemergence, scale 0 to 100, read-out: Plant response rating, Kochia
[11] = pre-emergence, Preemergence, scale 0 to 100, read-out: Plant response rating, Kochia
[12] = post-emergence, Postemergence, scale 0 to 100 (0 no effect, 100 complete control), read-out: Morningglory plant response rating
[13] = post-emergence, Postemergence, scale 0 to 100, read-out: Plant response rating, Morningglory
[14] = pre-emergence, Preemergence, scale 0 to 100, read-out: Plant response rating, Morningglory
[15] = post-emergence, Postemergence, scale 0 to 100 (0 no effect, 100 complete control), read-out: Pigweed plant response rating
[16] = post-emergence, Postemergence, scale 0 to 100, read-out: Plant response rating, Pigweed
[17] = pre-emergence, Preemergence, scale 0 to 100, read-out: Plant response rating, Pigweed
[18] = post-emergence, Postemergence, scale 0 to 100 (0 no effect, 100 complete control), read-out: Soybean plant response rating
[19] = post-emergence, Postemergence, scale 0 to 100, read-out: Plant response rating, Soybean
[20] = pre-emergence, Preemergence, scale 0 to 100, read-out: Plant response rating, Soybean
[21] = post-emergence, Postemergence, scale 0 to 100 (0 no effect, 100 complete control), read-out: Cupgrass, Woolly plant response rating
[22] = post-emergence, Postemergence, scale 0 to 100, read-out: Plant response rating, Cupgrass, Woolly
[23] = pre-emergence, Preemergence, scale 0 to 100, read-out: Plant response rating, Cupgrass, Woolly

CNc1nc(C2CC2)nc(C(=O)OC)c1Br [Compound 5]
20%: pest or weed control at 125 g/ha ([1]; pre-emergence, Preemergence, 125 g ai/ha, scale 0 to 100)
45%: pest or weed control at 250 g/ha [1, 7] | pest or weed control at 500 g/ha [1, 7]
90%: pest or weed control at 250 g/ha [3, 14] | pest or weed control at 125 g/ha [4, 15] | pest or weed control at 250 g/ha [4, 16] | pest or weed control at 125 g/ha [4, 17] | plant injury at 125 g/ha [5, 20]
0%: pest or weed control at 62 g/ha ([6]; pre-emergence, Preemergence, scale 0 to 100, 0 no effect, 100 complete control, read-out: Plant response rating, Cupgrass, Woolly) | pest or weed control at 125 g/ha [6, 23] | pest or weed control at 250 g/ha [6, 23] | pest or weed control at 500 g/ha [6, 23]
95%: pest or weed control at 125 g/ha [2, 11] | pest or weed control at 62 g/ha [3, 12] | pest or weed control at 125 g/ha [3, 12] | plant injury at 62 g/ha [5, 18]
60%: pest or weed control at 250 g/ha [1, 8] | pest or weed control at 62 g/ha ([4]; pre-emergence, Preemergence, scale 0 to 100, 0 no effect, 100 complete control, read-out: Plant response rating, Pigweed)
100%: pest or weed control at 62 g/ha [2, 9] | pest or weed control at 125 g/ha [2, 9] | pest or weed control at 250 g/ha [2, 10] | pest or weed control at 500 g/ha [2, 10] | pest or weed control at 250 g/ha [2, 11] | pest or weed control at 500 g/ha [2, 11] | pest or weed control at 250 g/ha [3, 13] | pest or weed control at 500 g/ha [3, 13] | pest or weed control at 500 g/ha [3, 14] | pest or weed control at 500 g/ha [4, 16] | pest or weed control at 250 g/ha [4, 17] | pest or weed control at 500 g/ha [4, 17] | plant injury at 125 g/ha [5, 18] | plant injury at 250 g/ha [5, 19] | plant injury at 500 g/ha [5, 19] | plant injury at 500 g/ha [5, 20]
50%: pest or weed control at 62 g/ha ([3]; pre-emergence, Preemergence, scale 0 to 100, 0 no effect, 100 complete control, read-out: Plant response rating, Morningglory) | pest or weed control at 125 g/ha [6, 21] | pest or weed control at 250 g/ha [6, 22]
70%: pest or weed control at 500 g/ha [1, 8] | pest or weed control at 500 g/ha [6, 22]
85%: pest or weed control at 62 g/ha [4, 15] | plant injury at 62 g/ha ([5]; pre-emergence, Preemergence, scale 0 to 100, 0 no effect, 100 complete control, read-out: Plant response rating, Soybean)
5%: pest or weed control at 62 g/ha ([1]; pre-emergence, Preemergence, 62 g ai/ha, scale 0 to 100, 0 no effect, 100 complete control) | pest or weed control at 62 g/ha [6, 21]
80%: pest or weed control at 62 g/ha ([2]; pre-emergence, Preemergence, scale 0 to 100, 0 no effect, 100 complete control, read-out: Plant response rating, Kochia) | pest or weed control at 125 g/ha [3, 14]
98%: plant injury at 250 g/ha [5, 20]
